Experimental data: patent US11180462B2, “Microbiocidal oxadiazole derivatives” (SYNGENTA PARTICIPATIONS AG, priority 2015, dated 2021)

What was measured:
[1] = tested on: Puccinia recondita f. Sp. Tritici; test: Fungicidal activity against Puccinia recondita f. sp. tritici / wheat / leaf disc preventative (brown rust); format: in vivo; settings: foliar, 200 ppm in the applied formulation, wheat leaf segments, preventative, compared to untreated control leaf disks, read-out: disease control
In short: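 Preventative leaf-segment test, wheat cv. Kanzler on water agar. Spray compound at 200 ppm, inoculate with spores 1 day later; 19° C., 75% rh, 12/12 h light. Read-out: % disease control vs untreated, 7 to 9 days after application.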

[2] = tested on: Puccinia recondita f. Sp. Tritici; test: Fungicidal activity against Puccinia recondita f. sp. tritici / wheat / leaf disc curative (brown rust); format: in vivo; settings: foliar, 24 h, 200 ppm in the applied formulation, wheat leaf segments, curative (applied 1 day after inoculation), compared to untreated control leaf disks, read-out: disease control
In short: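 Curative test on wheat leaf segments (cv. Kanzler) on agar, inoculated with spore suspension and held dark at 19° C, 75% RH; formulated compound in water applied 1 day after inoculation. Incubated at 19° C, 75% RH, 12 h light/12 h dark; percent disease control versus untreated scored 6 to 8 days after application.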

[3] = tested on: Glomerella lagenarium (Colletotrichum lagenarium); test: Fungicidal activity against Glomerella lagenarium (Colletotrichum lagenarium) liquid culture / cucumber / preventative (anthracnose); format: cell-based; settings: Colletotrichum orbiculare; 20 ppm in the applied formulation; liquid culture (PDB), growth inhibition measured photometrically after 3 to 4 days; compared to untreated control; read-out: disease control
In short: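 Photometric read-out of fungal growth after 2–7 days, expressed as percent antifungal activity versus untreated check. Cryo-stored conidia in PDB; compound at 20 ppm; dark, 24 °C, 96% RH.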

Phakopsora Pachyrhizi = test: Fungicidal activity against Phakopsora pachyrhizi / soybean / leaf disc preventative (Asian soybean rust); format: in vivo; settings: foliar, 200 ppm in the applied formulation, soybean leaf disks, compared to untreated control leaf disks, read-out: disease control
In short: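 Preventative soybean leaf-disc test: discs on water agar sprayed with diluted formulated compound, inoculated one day later with spores on the lower surface. Held 24–36 h dark at 20°C, 75% rh, then 12 h light/day; percent disease control versus untreated discs scored 12–14 days after application.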

CON(Cc1ccc(-c2noc(C(F)(F)F)n2)cc1)C(=O)N(C)C1COC1 [Compound 3.59, 1-methoxy-3-methyl-3-(oxetan-3-yl)-1-[[4-[5-(trifluoromethyl)-1,2,4-oxadiazol-3-yl]phenyl]methyl]urea]
≥ 80%: pest or weed control at 200 ppm [1] | pest or weed control at 200 ppm [2] | inhibition of growth at 20 ppm [3] | pest or weed control at 200 ppm (Phakopsora Pachyrhizi)

CC(=O)CC(C)C(=O)N(Cc1ccc(-c2noc(C(F)(F)F)n2)cc1)C1CC1 (centres unmarked) [Compound 1.95, N-cyclopropyl-2-methyl-4-oxo-N-[[4-[5-(trifluoromethyl)-1,2,4-oxadiazol-3-yl]phenyl]methyl]-pentanamide]
≥ 80%: pest or weed control at 200 ppm [1] | pest or weed control at 200 ppm [2] | inhibition of growth at 20 ppm [3] | pest or weed control at 200 ppm (Phakopsora Pachyrhizi)

CCC(=O)N(CCOC)Cc1ccc(-c2noc(C(F)(F)F)n2)cc1 [Compound 1.345, N-(2-methoxyethyl)-N-[[4-[5-(trifluoromethyl)-1,2,4-oxadiazol-3-yl]phenyl]methyl]-propanamide]
≥ 80%: pest or weed control at 200 ppm [1] | pest or weed control at 200 ppm [2] | inhibition of growth at 20 ppm [3] | pest or weed control at 200 ppm (Phakopsora Pachyrhizi)

CCON(Cc1ccc(-c2noc(C(F)(F)F)n2)cc1)C(=O)C1CC1 [Compound 1.564, N-ethoxy-N-[[4-[5-(trifluoromethyl)-1,2,4-oxadiazol-3-yl]phenyl]methyl]-cyclopropane-carboxamide]
≥ 80%: pest or weed control at 200 ppm [1] | pest or weed control at 200 ppm [2] | inhibition of growth at 20 ppm [3] | pest or weed control at 200 ppm (Phakopsora Pachyrhizi)

CCCN(Cc1ccc(-c2noc(C(F)(F)F)n2)cc1)C(=O)C1CCOC1 (centres unmarked) [Compound 1.654, N-propyl-N-[[4-[5-(trifluoromethyl)-1,2,4-oxadiazol-3-yl]phenyl]methyl]-tetrahydrofuran-3-carboxamide]
≥ 80%: pest or weed control at 200 ppm [1] | pest or weed control at 200 ppm [2] | inhibition of growth at 20 ppm [3] | pest or weed control at 200 ppm (Phakopsora Pachyrhizi)

CON(Cc1ccc(-c2noc(C(F)(F)F)n2)cc1)C(=O)C1CCC1 [Compound 1.38, N-methoxy-N-[[4-[5-(trifluoromethyl)-1,2,4-oxadiazol-3-yl]phenyl]methyl]-cyclobutane-carboxamide]
≥ 80%: pest or weed control at 200 ppm [1] | pest or weed control at 200 ppm [2] | inhibition of growth at 20 ppm [3] | pest or weed control at 200 ppm (Phakopsora Pachyrhizi)

COCC(=O)N(C)Cc1ccc(-c2noc(C(F)(F)F)n2)cc1 [Compound 1.519, 2-methoxy-N-methyl-N-[[4-[5-(trifluoromethyl)-1,2,4-oxadiazol-3-yl]phenyl]methyl]-acetamide]
≥ 80%: pest or weed control at 200 ppm [1] | pest or weed control at 200 ppm [2] | inhibition of growth at 20 ppm [3] | pest or weed control at 200 ppm (Phakopsora Pachyrhizi)

CCC(COC)C(=O)N(CCO)Cc1ccc(-c2noc(C(F)(F)F)n2)cc1 (centres unmarked) [Compound 1.723, N-(2-hydroxyethyl)-2-(methoxymethyl)-N-[[4-[5-(trifluoromethyl)-1,2,4-oxadiazol-3-yl]phenyl]methyl]-butanamide]
≥ 80%: pest or weed control at 200 ppm [1] | pest or weed control at 200 ppm [2] | inhibition of growth at 20 ppm [3] | pest or weed control at 200 ppm (Phakopsora Pachyrhizi)

COCCN(Cc1ccc(-c2noc(C(F)(F)F)n2)cc1)C(=O)C1(C)CC1 [Compound 1.344, N-(2-methoxyethyl)-1-methyl-N-[[4-[5-(trifluoromethyl)-1,2,4-oxadiazol-3-yl]phenyl]methyl]-cyclopropane-carboxamide]
≥ 80%: pest or weed control at 200 ppm [1] | pest or weed control at 200 ppm [2] | inhibition of growth at 20 ppm [3] | pest or weed control at 200 ppm (Phakopsora Pachyrhizi)

CC1CC1C(=O)N(Cc1ccc(-c2noc(C(F)(F)F)n2)cc1)CC1CC1 (centres unmarked) [Compound 1.223, N-(cyclopropylmethyl)-2-methyl-N-[[4-[5-(trifluoromethyl)-1,2,4-oxadiazol-3-yl]phenyl]methyl]-cyclopropane-carboxamide]
≥ 80%: pest or weed control at 200 ppm [1] | pest or weed control at 200 ppm [2] | inhibition of growth at 20 ppm [3] | pest or weed control at 200 ppm (Phakopsora Pachyrhizi)

CC1(C(=O)N(CCO)Cc2ccc(-c3noc(C(F)(F)F)n3)cc2)CC1 [Compound 1.718, N-(2-hydroxyethyl)-1-methyl-N-[[4-[5-(trifiuoromethyl)-1,2,4-oxadiazol-3-yl]phenyl]methyl]-cyctopropane-carboxamide]
≥ 80%: pest or weed control at 200 ppm [1] | pest or weed control at 200 ppm [2] | inhibition of growth at 20 ppm [3] | pest or weed control at 200 ppm (Phakopsora Pachyrhizi)

C#CCN(Cc1ccc(-c2noc(C(F)(F)F)n2)cc1)C(=O)C(C)(C)CCl [Compound 1.176, 3-chloro-2,2-dimethyl-N-prop-2-ynyl-N-[[4-[5-(trifluoromethyl)-1,2,4-oxadiazol-3-yl]phenyl]methyl]-propanamide]
≥ 80%: pest or weed control at 200 ppm [1] | pest or weed control at 200 ppm [2] | inhibition of growth at 20 ppm [3] | pest or weed control at 200 ppm (Phakopsora Pachyrhizi)

COCCN(Cc1ccc(-c2noc(C(F)(F)F)n2)cc1)C(=O)C1CC1F (centres unmarked) [Compound 1.358, 2-fluoro-N-(2-methoxyethyl)-N-[[4-[5-(trifIuoromethyl)-1,2,4-oxadiazol-3-yl]phenyl]methyl]-cyclopropane-carboxamide]
≥ 80%: pest or weed control at 200 ppm [1] | pest or weed control at 200 ppm [2] | inhibition of growth at 20 ppm [3] | pest or weed control at 200 ppm (Phakopsora Pachyrhizi)

CC(C)N(Cc1ccc(-c2noc(C(F)(F)F)n2)cc1)C(=O)C1(C#N)CC1 [Compound 1.684, 1 cyano-N-isopropyl-N-[[4-[5-(trifluoromethyl)-1,2,4-oxadiazol-3-yl]phenyl]methyl]-cyclopropane-carboxamide]
≥ 80%: pest or weed control at 200 ppm [1] | pest or weed control at 200 ppm [2] | inhibition of growth at 20 ppm [3] | pest or weed control at 200 ppm (Phakopsora Pachyrhizi)

CCCN(Cc1ccc(-c2noc(C(F)(F)F)n2)cc1)C(=O)CC#N [Compound 1.664, 2-cyano-N-propyl-N-[[4-[5-(trifluoromethyl)-1,2,4-oxadiazol-3-yl]phenyl]methyl]-acetamide]
≥ 80%: pest or weed control at 200 ppm [1] | pest or weed control at 200 ppm [2] | inhibition of growth at 20 ppm [3] | pest or weed control at 200 ppm (Phakopsora Pachyrhizi)

CC1(C(=O)N(Cc2ccc(-c3noc(C(F)(F)F)n3)cc2)CC(F)(F)F)COC1 [Compound 1.698, 3-methyl-N-(2,2,2-trifluoroethyl)-N-[[4-[5-(trifluoromethyl)-1,2,4-oxadiazol-3-yl]phenyl]methyl]-oxetane-3-carboxamide]
≥ 80%: pest or weed control at 200 ppm [1] | pest or weed control at 200 ppm [2] | inhibition of growth at 20 ppm [3] | pest or weed control at 200 ppm (Phakopsora Pachyrhizi)

C#CCN(Cc1ccc(-c2noc(C(F)(F)F)n2)cc1)C(=O)C1CC1(C)C (centres unmarked) [Compound 1.189, 2,2-dimethyl-N-prop-2-ynyl-N-[[4-[5-(trifluoromethyl)-1,2.4-oxadiazol-3-yl]phenyl]methyl]-cyclopropane-carboxamide]
≥ 80%: pest or weed control at 200 ppm [1] | pest or weed control at 200 ppm [2] | inhibition of growth at 20 ppm [3] | pest or weed control at 200 ppm (Phakopsora Pachyrhizi)

CCC(C)N(Cc1ccc(-c2noc(C(F)(F)F)n2)cc1)C(=O)C1CC1F (centres unmarked) [Compound 1.401, 2-fluoro-N-sec-butyl-N-[[4-[5-(trifluoromethyl)-1,2,4-oxadiazol-3-yl]phenyl]methyl]-cyclopropane-carboxamide]
≥ 80%: pest or weed control at 200 ppm [1] | pest or weed control at 200 ppm [2] | inhibition of growth at 20 ppm [3] | pest or weed control at 200 ppm (Phakopsora Pachyrhizi)

CCCN(Cc1ccc(-c2noc(C(F)(F)F)n2)cc1)C(=O)C1CCC1 [Compound 1.656, N-propyl-N-[[4-[5-(trifluoromethyl)-1,2,4-oxadiazol-3-yl]phenyl]methyl]-cyclobutane-carboxamide]
≥ 80%: pest or weed control at 200 ppm [1] | pest or weed control at 200 ppm [2] | inhibition of growth at 20 ppm [3] | pest or weed control at 200 ppm (Phakopsora Pachyrhizi)

CCON(Cc1ccc(-c2noc(C(F)(F)F)n2)cc1)C(=O)C1(C)CC1 [Compound 1.621, N-ethoxy-1-methyl-N-[[4-[5-(trifluoromethyl)-1,2,4-oxadiazol-3-yl]phenyl]methyl]-cyclopropane-carboxamide]
≥ 80%: pest or weed control at 200 ppm [1] | pest or weed control at 200 ppm [2] | inhibition of growth at 20 ppm [3] | pest or weed control at 200 ppm (Phakopsora Pachyrhizi)
